Results published in PubChem BioAssay (NCI).
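Cells were grown in 96-well plates and exposed to each compound for 48 hours at five concentrations; endpoints were interpolated linearly between bracketing concentrations, or set to the highest concentration if not reached. GI50 = concentration required for 50% inhibition of growth. TGI: total growth inhibition.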

Columns and labels:
Test in all cases: NCI anticancer screen, dose series, 48 h
[1] = system: NCI-H226 lung
[2] = system: COLO 205 colon
[3] = system: SN12C renal
[4] = system: SW-620 colon
[5] = system: M14 melanoma
[6] = system: UACC-62 melanoma
[7] = system: U251 CNS
[8] = system: SF-268 CNS
[9] = system: HOP-62 NSCLC
[10] = system: HS 578T breast

CCC[CH2][Sn]1([CH2]CCC)[O]CC([CH2][Sn]([c]2ccccc2)([c]2ccccc2)[c]2ccccc2)[O]1 (stereo not drawn)
GI50 [1]: 20.7 µM
TGI [1]: 38.8 µM
GI50 [2]: 10.4 µM
TGI [2]: 23 µM
GI50 [3]: 14 µM
TGI [3]: 27.7 µM
GI50 [4]: 3.9 µM
TGI [4]: 15.7 µM
GI50 [5]: 15.9 µM
TGI [5]: 31.4 µM
GI50 [6]: 10.6 µM
TGI [6]: 22.6 µM
GI50 [7]: 6.5 µM
TGI [7]: 19.9 µM
GI50 [8]: 6.79 µM
TGI [8]: 19 µM

CN(Cc1ccccc1)c1nc(=[N+](C)C)ss1
TGI [1]: > 100 µM
TGI [3]: > 100 µM
TGI [9]: > 100 µM
TGI [4]: > 100 µM
TGI [5]: > 100 µM
TGI [6]: > 100 µM
TGI [7]: > 100 µM
TGI [8]: > 100 µM

CC1(C)CC(O)CCCCCCOc2c(CN)cccc2NC(=O)c2nc(cnc2N)-c2ccc(cc2)S1(=O)=O (stereo not drawn)
GI50 [1]: 1.28 µM
TGI [1]: 6.93 µM
GI50 [2]: 0.394 µM
TGI [2]: 2.08 µM
GI50 [3]: 0.761 µM
TGI [3]: 2.49 µM
GI50 [9]: 1.41 µM
TGI [9]: 3.75 µM
GI50 [4]: 0.629 µM
TGI [4]: 2.36 µM
GI50 [5]: 0.0927 µM
TGI [5]: 2.58 µM
GI50 [6]: 1.67 µM
TGI [6]: 3.3 µM
GI50 [7]: 0.382 µM
TGI [7]: 1.86 µM
GI50 [8]: 1.27 µM
TGI [8]: 3.44 µM

C=C(C)C1CCC2(CO)C(O)CC3(C)C(CCC4C5(C)CCC(O)C(C)(C)C5CCC43C)C12 (stereo not drawn)
TGI [1]: > 100 µM
TGI [3]: > 100 µM
TGI [9]: 27 µM
TGI [4]: > 100 µM
TGI [5]: > 100 µM
TGI [10]: 90.7 µM
TGI [7]: 9.96 µM
TGI [8]: > 100 µM

CC(=O)NNc1nc(C)c(C(/C=C/c2ccc(Cl)cc2)=N/NC(=S)NN)s1
TGI [1]: > 100 µM
TGI [2]: > 100 µM
TGI [3]: > 100 µM
TGI [9]: > 100 µM
TGI [4]: > 100 µM
TGI [5]: > 100 µM
TGI [6]: > 100 µM
TGI [7]: > 100 µM
TGI [8]: > 100 µM

CCc1ccccc1NC(=O)C1=C(C)NC(C)=C(C(=O)Nc2ccccc2CC)C1c1ccc(NC(C)=O)cc1
TGI [1]: > 100 µM
TGI [2]: > 100 µM
TGI [3]: > 100 µM
TGI [9]: 92.8 µM
TGI [4]: > 100 µM
TGI [5]: > 100 µM
TGI [7]: > 100 µM
TGI [8]: > 100 µM

O/N=C1/C(=C/c2ccccc2)CCCC1C(NO)c1ccccc1 (stereo not drawn)
TGI [2]: > 100 µM
TGI [3]: > 100 µM
TGI [4]: > 100 µM
TGI [5]: > 100 µM
TGI [6]: > 100 µM
TGI [8]: > 100 µM

COC(=O)NN=C1C(C)(C)C(=NNC(=O)OC)C1(C)C
TGI [1]: > 100 µM
TGI [2]: > 56 µM
TGI [3]: > 100 µM
TGI [9]: > 100 µM
TGI [4]: > 100 µM
TGI [5]: > 100 µM
TGI [6]: > 100 µM
TGI [7]: > 100 µM
TGI [8]: > 100 µM

COC(=O)C(C(=O)C(=O)Nc1ccc(C)cc1C)c1nc2ccc([N+](=O)[O-])cc2[nH]c1=O (stereo not drawn)
TGI [1]: > 100 µM
TGI [2]: > 100 µM
TGI [3]: > 100 µM
TGI [9]: > 100 µM
TGI [4]: > 100 µM
TGI [5]: > 100 µM
TGI [6]: > 100 µM
TGI [7]: > 100 µM
TGI [8]: > 100 µM

CC(=O)Oc1cc(OC(C)=O)c2cc3c(cc2c1OC(C)=O)C(=O)C1(CCCC1)C3=O
TGI [2]: 33.9 µM
TGI [3]: 31.6 µM
TGI [9]: 42 µM
TGI [4]: 39.4 µM
TGI [5]: 32.1 µM
TGI [6]: 30.2 µM
TGI [7]: 32.3 µM
TGI [8]: 66.5 µM

NC(=O)N/N=C1/CCCC/C1=C\c1ccccc1
TGI [1]: > 100 µM
TGI [2]: > 100 µM
TGI [3]: > 100 µM
TGI [9]: > 100 µM
TGI [4]: > 100 µM
TGI [5]: > 100 µM
TGI [6]: > 100 µM
TGI [7]: > 100 µM
TGI [8]: > 100 µM

ClC1=C(Cl)C(Cl)=C(Cl)C1=Cc1ccc(Cl)cc1Cl
GI50 [2]: 0.486 µM
TGI [2]: 2.25 µM
GI50 [3]: 0.254 µM
TGI [3]: 0.743 µM
GI50 [9]: 0.396 µM
TGI [9]: 3.57 µM
GI50 [4]: 0.272 µM
TGI [4]: 0.717 µM
GI50 [5]: 0.234 µM
TGI [5]: 0.635 µM
GI50 [6]: 0.192 µM
TGI [6]: 0.495 µM
GI50 [10]: 0.522 µM
TGI [10]: > 100 µM
GI50 [7]: 0.39 µM
TGI [7]: 1.49 µM
GI50 [8]: 0.308 µM
TGI [8]: 1.43 µM

CCCCCCCCCCCCCCCCCCOCC1(COP(=O)([O-])OCC[N+](C)(C)C)CCCO1 (stereo not drawn)
TGI [1]: 20.1 µM
TGI [2]: 3.63 µM
TGI [3]: 5.81 µM
TGI [9]: 9.45 µM
TGI [5]: 8.59 µM
TGI [6]: 21.4 µM
TGI [7]: 7.03 µM
TGI [8]: 18.2 µM

CC(C)(C)[Si](Nc1ccccc1)(c1ccccc1)c1ccccc1
TGI [1]: 29.8 µM
TGI [2]: 29.4 µM
TGI [3]: 28.3 µM
TGI [9]: 31.4 µM
TGI [4]: 33.6 µM
TGI [5]: 27.5 µM
TGI [6]: 22.7 µM
TGI [7]: 26.8 µM
TGI [8]: 28 µM

C[C@@]1(CBr)C[C@@](C)(/C=C/Cl)[C@@H](Cl)C[C@H]1Cl
TGI [1]: 26.1 µM
TGI [2]: 28.1 µM
TGI [3]: 24.4 µM
TGI [9]: 27.5 µM
TGI [4]: 27.8 µM
TGI [5]: 29 µM
TGI [6]: 29.1 µM
TGI [7]: 27.9 µM
TGI [8]: 30.1 µM

COc1cc(CCC(=O)NS(=O)(=O)c2ccccc2)cc(OC)c1OC
TGI [1]: > 100 µM
TGI [2]: > 100 µM
TGI [3]: > 100 µM
TGI [9]: > 100 µM
TGI [4]: > 100 µM
TGI [5]: > 100 µM
TGI [6]: > 100 µM
TGI [7]: > 100 µM
TGI [8]: > 100 µM

NC(=O)C12CCC1C1CCCCC12N1CCOCC1 (stereo not drawn)
TGI [3]: > 100 µM
TGI [9]: > 100 µM
TGI [4]: > 100 µM
TGI [5]: > 100 µM
TGI [6]: > 100 µM
TGI [7]: > 100 µM
TGI [8]: > 100 µM

CC(=O)[CH-]C(=O)c1ccccc1.CC(=O)[CH-]C(=O)c1ccccc1.CC[O-].O=C1C=C([O-])C(=O)c2ccccc21.[Ti+4]
GI50 [1]: 76 µM
TGI [1]: > 100 µM
GI50 [2]: 26.9 µM
TGI [2]: > 100 µM
GI50 [3]: 97.9 µM
TGI [3]: > 100 µM
GI50 [9]: 58.2 µM
TGI [9]: > 100 µM
GI50 [4]: 33 µM
TGI [4]: > 100 µM
GI50 [5]: 18 µM
TGI [5]: > 100 µM
GI50 [6]: 38.8 µM
TGI [6]: > 100 µM
GI50 [7]: 32.4 µM
TGI [7]: > 100 µM
GI50 [8]: > 100 µM
TGI [8]: > 100 µM

COc1cc(C(=C2SCCS2)c2nccc3cc(OC)c(OC)cc23)c([N+](=O)[O-])cc1OC
TGI [1]: > 100 µM
TGI [2]: > 100 µM
TGI [3]: > 100 µM
TGI [9]: > 100 µM
TGI [4]: > 100 µM
TGI [5]: > 100 µM
TGI [6]: > 100 µM
TGI [7]: > 100 µM
TGI [8]: > 100 µM

CN(C)NC(=S)NC12CC3CC(CC(C3)C1)C2
TGI [1]: > 100 µM
TGI [2]: > 100 µM
TGI [3]: > 100 µM
TGI [9]: > 100 µM
TGI [4]: > 100 µM
TGI [5]: > 100 µM
TGI [6]: > 100 µM
TGI [7]: > 100 µM
TGI [8]: > 100 µM

C/C(CC(=O)Nc1ccc(NC(=O)/C(C)=N/NS(=O)(=O)c2ccc(C)cc2)cc1)=N\NS(=O)(=O)c1ccc(C)cc1
TGI [1]: > 100 µM
TGI [2]: > 100 µM
TGI [3]: > 100 µM
TGI [9]: > 100 µM
TGI [4]: > 100 µM
TGI [5]: > 100 µM
TGI [6]: > 100 µM
TGI [7]: > 100 µM
TGI [8]: > 100 µM
